“Also recorded” adds a separate entry of the source. Read-outs that look alike come from different tables or passages of the source.
Assays:
[1] = target: T1, glucocorticoid receptor (GR) (Homo sapiens, UniProt P04150); experiment: htSMT of Halo-GR in U2OS cells; assay type: cell-based; conditions: 1 μM antagonist, singly or co-administered with cognate agonist
T1 construct: Because U2OS cells express GR endogenously, HaloTag was inserted right before the stop codon of endogenous NR3C1; endogenous in cells; host or cells: U2OS (CRISPR/Cas9 knock-in at the NR3C1 locus)
T1 sequence (P04150 1-777): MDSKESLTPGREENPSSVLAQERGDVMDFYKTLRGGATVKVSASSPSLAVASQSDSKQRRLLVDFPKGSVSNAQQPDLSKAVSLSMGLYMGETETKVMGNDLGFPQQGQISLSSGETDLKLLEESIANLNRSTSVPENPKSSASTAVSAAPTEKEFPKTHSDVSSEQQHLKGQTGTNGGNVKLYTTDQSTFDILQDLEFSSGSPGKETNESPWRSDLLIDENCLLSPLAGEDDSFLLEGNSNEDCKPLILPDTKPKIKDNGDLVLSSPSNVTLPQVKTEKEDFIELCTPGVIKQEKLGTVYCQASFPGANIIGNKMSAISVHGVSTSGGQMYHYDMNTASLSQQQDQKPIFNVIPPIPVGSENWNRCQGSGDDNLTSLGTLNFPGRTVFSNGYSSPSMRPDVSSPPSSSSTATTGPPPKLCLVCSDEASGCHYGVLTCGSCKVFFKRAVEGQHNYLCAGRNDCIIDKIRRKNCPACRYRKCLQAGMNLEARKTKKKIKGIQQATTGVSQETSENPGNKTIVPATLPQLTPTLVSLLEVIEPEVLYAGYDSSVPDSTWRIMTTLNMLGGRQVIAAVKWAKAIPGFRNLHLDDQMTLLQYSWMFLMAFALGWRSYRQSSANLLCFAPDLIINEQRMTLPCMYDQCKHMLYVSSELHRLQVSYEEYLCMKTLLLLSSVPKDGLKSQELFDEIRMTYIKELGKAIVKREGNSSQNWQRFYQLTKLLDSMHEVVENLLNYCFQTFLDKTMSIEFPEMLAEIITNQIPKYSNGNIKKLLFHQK
Text: Where appropriate, compounds were serially diluted in an Echo Qualified 384-Well Low Dead Volume Source Microplate (0018544, Beckman Coulter) to generate dose-titration source material.

Estrogen Receptor (ER) [2] = target: T2, Estrogen Receptor (ER) (Homo sapiens, UniProt P03372); experiment: htSMT of Halo-ER in U2OS cells (fbound, Dfree); assay type: cell-based; conditions: for effect of pathway inhibitors on ER fbound / ER movement: retest and dose titration of pathway inhibitors
T2 construct: expressed in transfected cells; host or cells: U2OS
T2 sequence (P03372 1-595): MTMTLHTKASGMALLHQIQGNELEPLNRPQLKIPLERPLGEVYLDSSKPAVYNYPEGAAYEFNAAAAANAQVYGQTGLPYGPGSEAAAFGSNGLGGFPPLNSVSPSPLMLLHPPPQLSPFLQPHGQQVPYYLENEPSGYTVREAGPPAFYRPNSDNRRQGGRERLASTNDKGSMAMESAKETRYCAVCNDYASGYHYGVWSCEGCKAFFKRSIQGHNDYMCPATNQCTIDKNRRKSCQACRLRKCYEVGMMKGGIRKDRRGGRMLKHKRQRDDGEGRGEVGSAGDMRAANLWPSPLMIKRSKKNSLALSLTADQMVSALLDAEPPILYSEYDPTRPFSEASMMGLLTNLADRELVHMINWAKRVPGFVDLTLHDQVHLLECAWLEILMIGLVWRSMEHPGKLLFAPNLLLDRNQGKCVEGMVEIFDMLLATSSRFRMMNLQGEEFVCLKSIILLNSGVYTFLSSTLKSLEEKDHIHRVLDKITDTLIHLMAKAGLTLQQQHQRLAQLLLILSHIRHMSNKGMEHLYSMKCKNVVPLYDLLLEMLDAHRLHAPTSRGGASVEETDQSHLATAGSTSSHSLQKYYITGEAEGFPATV

Estrogen Receptor (ER) [3] = target: T2, Estrogen Receptor (ER); experiment: residence time imaging of ER-Halo (track length survival); assay type: cell-based; conditions: 100 nM HSP90 inhibition, normalized to DMSO
Estrogen Receptor (ER) [4] = target: T2, Estrogen Receptor (ER); experiment: kinetic SMT (kSMT) of ER after compound addition; assay type: cell-based; conditions: 100 nM compound
androgen receptor (AR) = androgen receptor (AR) (Homo sapiens, UniProt P10275)
androgen receptor (AR), sequence (P10275 whole entry): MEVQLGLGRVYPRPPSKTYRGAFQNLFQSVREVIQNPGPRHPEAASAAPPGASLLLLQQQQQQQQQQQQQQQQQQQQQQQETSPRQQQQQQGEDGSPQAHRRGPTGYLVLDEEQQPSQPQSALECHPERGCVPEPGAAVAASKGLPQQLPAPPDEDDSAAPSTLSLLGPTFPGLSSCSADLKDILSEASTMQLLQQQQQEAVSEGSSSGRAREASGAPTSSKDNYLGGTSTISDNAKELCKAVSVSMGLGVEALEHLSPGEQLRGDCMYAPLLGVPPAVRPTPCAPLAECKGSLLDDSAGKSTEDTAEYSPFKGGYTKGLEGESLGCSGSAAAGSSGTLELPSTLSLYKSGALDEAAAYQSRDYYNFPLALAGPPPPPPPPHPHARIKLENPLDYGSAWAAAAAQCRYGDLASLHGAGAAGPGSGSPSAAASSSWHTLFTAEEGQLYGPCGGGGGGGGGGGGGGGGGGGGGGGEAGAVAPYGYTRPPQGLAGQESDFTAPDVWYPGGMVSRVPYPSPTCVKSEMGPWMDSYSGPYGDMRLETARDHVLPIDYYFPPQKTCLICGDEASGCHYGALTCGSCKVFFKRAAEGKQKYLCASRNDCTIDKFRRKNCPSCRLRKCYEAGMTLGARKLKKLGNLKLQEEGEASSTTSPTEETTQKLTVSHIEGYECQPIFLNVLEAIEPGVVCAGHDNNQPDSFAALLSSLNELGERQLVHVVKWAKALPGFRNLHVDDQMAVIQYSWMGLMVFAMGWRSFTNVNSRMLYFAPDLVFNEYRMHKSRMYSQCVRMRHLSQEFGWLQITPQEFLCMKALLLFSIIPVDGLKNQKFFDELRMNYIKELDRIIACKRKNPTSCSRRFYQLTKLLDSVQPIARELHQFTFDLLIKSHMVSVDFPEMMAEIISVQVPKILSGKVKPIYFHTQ

ER = ER (Homo sapiens, UniProt P03372); experiment: Western blot of ER after compound treatment; assay type: cell-based; conditions: 100 nM fulvestrant, 24 hours; MCF7, T47d, U2OS Halo-ER
Experimental: Cells were grown in the same conditions as described previously. […] Cells are lysed in 200 μL 1× Cell Lysis Buffer (catalogue number 9803, Cell Signaling). Protein lysate concentration is then determined using BCA protein assay kit (Catalog number 23225, Pierce™ BCA Protein Assay Kit) following manufacturer instructions. Capillary Western Immunoassay were performed using Jess Protein Simple following manufacturer's instruction (protein simple, USA). Levels of αER (1:100, RM-9101) were normalized to loading control β-tubulin (1:100, NC0244815 LI-COR 92642213, Thermo Fisher). The peaks were analyzed with the Compass software (Protein Simple, USA).

With `CN(C)c1ccc(C(c2ccc(N(C)C)cc2)c2cc([N+](=O)[O-])ccc2Cl)cc1` [AL082D06] the “effect on GR chromatin binding (fbound)” value [1] was “decrease in chromatin binding”.
`COc1cccc(-c2cc(F)ccc2[C@H]2Cc3nc(N)nc(C)c3C(=O)N2)n1` [HSP990] was tested, and the “effect of pathway inhibitors on ER fbound / ER movement” value (Estrogen Receptor (ER) [2]) was “increase in fbound”, the “decrease in total number of long binding events” value (Estrogen Receptor (ER) [3]) was “two” and the “t1/2 of increase in ER fbound” value (Estrogen Receptor (ER) [4]) was 17.5 min. The “time at which overall effect on ER fbound reaches plateau” value (Estrogen Receptor (ER) [4]) was “plateau after an hour”.
For `CC(C)c1cc(-c2n[nH]c(=O)n2-c2ccc3c(ccn3C)c2)c(O)cc1O` [ganetespib], the “effect of pathway inhibitors on ER fbound / ER movement” value (Estrogen Receptor (ER) [2]) was “increase in fbound”, the “decrease in total number of long binding events” value (Estrogen Receptor (ER) [3]) was “four” and the “t1/2 of increase in ER fbound” value (Estrogen Receptor (ER) [4]) was 19.3 min. The “time at which overall effect on ER fbound reaches plateau” value (Estrogen Receptor (ER) [4]) was “plateau after an hour”.
`CC(O)c1cc(C(=O)N[C@@H](C)Cn2ccc(-c3ccc(C#N)c(Cl)c3)n2)[nH]n1` (some centres unmarked) [Darolutamide] was tested, and the “effect on AR chromatin binding (fbound)” value (androgen receptor (AR)) was “decrease in chromatin binding”.
In the case of 4-hydroxytamoxifen, the “change in ER fbound, bioactive screen” value (Estrogen Receptor (ER) [2]) is reported as “significantly increased fbound” and the “maximal increase in ER fbound, compared with SERDs fulvestrant and GDC-0927” value (Estrogen Receptor (ER) [2]) is reported as “lower maximal increases in fbound”.
For `C[C@]12CC[C@@H]3c4ccc(O)cc4C[C@@H](CCCCCCCCC[S+]([O-])CCCC(F)(F)C(F)(F)F)[C@H]3[C@@H]1CC[C@@H]2O` (some centres unmarked) [fulvestrant], the “change in ER fbound, bioactive screen” value (Estrogen Receptor (ER) [2]; 1 μM compound versus DMSO, 5,067-molecule screen) was “caused an increase in fbound; also recorded: significantly increased fbound” and the “ER degradation by western blot” value (ER) was “leads to the degradation of ER”.
